# According to patent US12171230B2, “Herbicidal compositions” (Bayer Aktiengesellschaft, priority 2018, dated 2024):
# What was measured:
# Format in all cases: in vivo
# Lamium purpureum = assay: Post-emergence herbicidal action against Lamium purpureum; conditions: 100 g of a.i./ha
# Description: (§1) When the observed efficacies exceed the formal sum total of the values of the tests with individual applications, they also exceed the expected value according to Colby, which is calculated using the formula below and is likewise regarded as an indication of synergism (cf. S. R. Colby; in Weeds 15 (1967) p. 20 to 22): E^C=A+B−([…])
# (§2) Here: • A=efficacy of the active compound (A) in % at an application rate of a g a.i./ha; • B=efficacy of the active compound (B) in % at an application rate of b g a.i./ha; • E^C=expected value of the effect of the combination (A)+(B) in % at the combined application rate a+b g a.i./ha.
# (§3) Seeds or rhizome pieces of mono- and dicotyledonous weeds are placed in sandy loam in pots, covered with soil and grown in a greenhouse under good growth conditions (temperature, air humidity, water supply). Three weeks after sowing, the test plants were treated at the three-leaf stage with the compositions according to the invention. The compositions according to the invention formulated as spray powders or as emulsion concentrates were sprayed onto the green plant parts in various dosages with an application rate of 300 to 800 l/ha of water (equivalent). After the test plants have been left to stand in the greenhouse under optimal growth conditions for about 3 to 4 weeks, the action of the preparations is scored visually in comparison to untreated controls. The compositions according to the invention also have good post-emergence herbicidal activity against a broad spectrum of economically important gramineous and broadleaf weeds.
# Viola tricolor = assay: Post-emergence herbicidal action against Viola tricolor
# Description: (§4) The following abbreviations are used in the description and the tables that follow: • g of a.i./ha=grams of active substance (active ingredient) (=100% active compound) per hectare; • The sum total of the effects of the individual applications is reported under E^A; • expected values according to Colby are each reported under E^C.
# (§5) The rating period is reported in days after application (DAT).
# Centaurea cyano = assay: Post-emergence herbicidal action against Centaurea cyano
# Description: Seeds or rhizome pieces of mono- and dicotyledonous weeds are placed in sandy loam in pots, covered with soil and grown in a greenhouse under good growth conditions (temperature, air humidity, water supply). Three weeks after sowing, the test plants were treated at the three-leaf stage with the compositions according to the invention. The compositions according to the invention formulated as spray powders or as emulsion concentrates were sprayed onto the green plant parts in various dosages with an application rate of 300 to 800 l/ha of water (equivalent).
# Bromus sterilis = assay: Post-emergence herbicidal action against Bromus sterilis
# Description: as §4, §5
# Lolium rigidum = assay: Post-emergence herbicidal action against Lolium rigidum
# Description: as §4, §5
# Alopecurus myosuroides = assay: Post-emergence herbicidal action against Alopecurus myosuroides
# Description: as §4, §5
# [1] = system: Lolium rigidum (resistant biotype); assay: Post-emergence herbicidal action against Lolium rigidum (resistant biotype)
# Description: as §4, §5
# Poa annua = assay: Post-emergence herbicidal action against Poa annua
# Description: as §1, §2, §3
# Matricaria inodora = assay: Post-emergence herbicidal action against Matricaria inodora
# Galium aparine = assay: Post-emergence herbicidal action against Galium aparine
# Description: as §1, §2, §3
# Phalaris minor = assay: Post-emergence herbicidal action against Phalaris minor
# Description: as §4, §5
# Veronica hederifolia = assay: Post-emergence herbicidal action against Veronica hederifolia
# Description: as §4, §5
compound,measurement,setting,value
CC(C)N(C(=O)COc1nnc(C(F)(F)F)s1)c1ccc(F)cc1 [(B2.28) Flufenacet],Herbicidal action 14 DAT against Lamium purpureum L.,Lamium purpureum,40%
same,Herbicidal action 28 DAT against Lamium purpureum L.,Lamium purpureum,20%
same,Herbicidal action 14 DAT against Viola tricolor,Viola tricolor; 33 g of a.i./ha,20%
same,Herbicidal action 28 DAT against Viola tricolor,Viola tricolor; 33 g of a.i./ha,20%
same,Herbicidal action 14 DAT against Viola tricolor,Viola tricolor; 100 g of a.i./ha,50%
same,Herbicidal action 28 DAT against Viola tricolor,Viola tricolor; 100 g of a.i./ha,20%
same,Herbicidal action 28 DAT against Viola tricolor,Viola tricolor; 300 g of a.i./ha,35%
same,Herbicidal action 28 DAT against Centaurea cyanus,Centaurea cyano; 100 g of a.i./ha,20%
same,Herbicidal action 14 DAT against Centaurea cyanus,Centaurea cyano; 300 g of a.i./ha,30%
same,Herbicidal action 14 DAT against Bromus sterilis,Bromus sterilis; 33 g of a.i./ha,35%
same,Herbicidal action 14 DAT against Bromus sterilis,Bromus sterilis; 100 g of a.i./ha,75%
same,Herbicidal action 28 DAT against Bromus sterilis,Bromus sterilis; 100 g of a.i./ha,25%
same,Herbicidal action 28 DAT against Bromus sterilis,Bromus sterilis; 300 g of a.i./ha,65%
same,Herbicidal action 14 DAT against Lolium rigidum,Lolium rigidum; 33 g of a.i./ha,0%
same,Herbicidal action 14 DAT against Lolium rigidum,Lolium rigidum; 100 g of a.i./ha,35%
same,Herbicidal action 28 DAT against Lolium rigidum,Lolium rigidum; 100 g of a.i./ha,20%
same,Herbicidal action 14 DAT against Lolium rigidum,Lolium rigidum; 300 g of a.i./ha,40%
same,Herbicidal action 28 DAT against Lolium rigidum,Lolium rigidum; 300 g of a.i./ha,25%
same,Herbicidal action 14 DAT against Alopecurus myosuroides,Alopecurus myosuroides; 100 g of a.i./ha,70%
same,Herbicidal action 28 DAT against Alopecurus myosuroides,Alopecurus myosuroides; 300 g of a.i./ha,75%
same,Herbicidal action 14 DAT against Lolium rigidum (resistant biotype),[1]; 100 g of a.i./ha,20%
same,Herbicidal action 28 DAT against Lolium rigidum (resistant biotype),[1]; 100 g of a.i./ha,10%
same,Herbicidal action 14 DAT against Lolium rigidum (resistant biotype),[1]; 300 g of a.i./ha,10%
same,Herbicidal action 28 DAT against Lolium rigidum (resistant biotype),[1]; 300 g of a.i./ha,20%
same,Herbicidal action 28 DAT against Poa annua L.,Poa annua; 33 g of a.i./ha,10%
same,Herbicidal action 28 DAT against Poa annua L.,Poa annua; 100 g of a.i./ha,70%
same,Herbicidal action 28 DAT against Poa annua L.,Poa annua; 300 g of a.i./ha,65%
same,Herbicidal action 14 DAT against Matricaria inodora,Matricaria inodora; 33 g of a.i./ha,0%
same,Herbicidal action 28 DAT against Galium aparine,Galium aparine; 33 g of a.i./ha,60%
same,Herbicidal action 28 DAT against Galium aparine,Galium aparine; 100 g of a.i./ha,65%
same,Herbicidal action 28 DAT against Phalaris minor,Phalaris minor; 33 g of a.i./ha,0%
same,Herbicidal action 28 DAT against Phalaris minor,Phalaris minor; 100 g of a.i./ha,40%
same,Herbicidal action 28 DAT against Phalaris minor,Phalaris minor; 300 g of a.i./ha,85%
same,Herbicidal action 14 DAT against Veronica hederifolia,Veronica hederifolia; 33 g of a.i./ha,35%
same,Herbicidal action 14 DAT against Veronica hederifolia,Veronica hederifolia; 100 g of a.i./ha,40%
COc1cc(OC)nc(NC(=O)NS(=O)(=O)c2cc(NC=O)ccc2C(=O)N(C)C)n1 [(B2.31) Foramsulfuron],Herbicidal action 28 DAT against Viola tricolor,Viola tricolor; 1 g of a.i./ha,65%
same,Herbicidal action 28 DAT against Viola tricolor,Viola tricolor; 3 g of a.i./ha,80%
same,Herbicidal action 14 DAT against Bromus sterilis,Bromus sterilis; 1 g of a.i./ha,65%
same,Herbicidal action 14 DAT against Bromus sterilis,Bromus sterilis; 3 g of a.i./ha,85%
same,Herbicidal action 28 DAT against Bromus sterilis,Bromus sterilis; 3 g of a.i./ha,25%
same,Herbicidal action 14 DAT against Bromus sterilis,Bromus sterilis; 9 g of a.i./ha,85%
same,Herbicidal action 28 DAT against Bromus sterilis,Bromus sterilis; 9 g of a.i./ha,60%
same,Herbicidal action 28 DAT against Lolium rigidum,Lolium rigidum; 3 g of a.i./ha,35%
same,Herbicidal action 28 DAT against Lolium rigidum,Lolium rigidum; 9 g of a.i./ha,65%
same,Herbicidal action 14 DAT against Alopecurus myosuroides,Alopecurus myosuroides; 1 g of a.i./ha,80%
same,Herbicidal action 28 DAT against Alopecurus myosuroides,Alopecurus myosuroides; 1 g of a.i./ha,40%
same,Herbicidal action 28 DAT against Alopecurus myosuroides,Alopecurus myosuroides; 3 g of a.i./ha,80%
same,Herbicidal action 28 DAT against Alopecurus myosuroides,Alopecurus myosuroides; 9 g of a.i./ha,85%
same,Herbicidal action 14 DAT against Lolium rigidum (resistant biotype),[1]; 3 g of a.i./ha,15%
same,Herbicidal action 28 DAT against Lolium rigidum (resistant biotype),[1]; 3 g of a.i./ha,10%
same,Herbicidal action 14 DAT against Lolium rigidum (resistant biotype),[1]; 9 g of a.i./ha,15%
same,Herbicidal action 28 DAT against Lolium rigidum (resistant biotype),[1]; 9 g of a.i./ha,20%
same,Herbicidal action 28 DAT against Poa annua L.,Poa annua; 1 g of a.i./ha,40%
same,Herbicidal action 14 DAT against Matricaria inodora,Matricaria inodora; 1 g of a.i./ha,70%
same,Herbicidal action 28 DAT against Matricaria inodora,Matricaria inodora; 1 g of a.i./ha,30%
same,Herbicidal action 28 DAT against Galium aparine,Galium aparine; 1 g of a.i./ha,0%
same,Herbicidal action 28 DAT against Galium aparine,Galium aparine; 9 g of a.i./ha,65%
same,Herbicidal action 14 DAT against Phalaris minor,Phalaris minor; 3 g of a.i./ha,85%
same,Herbicidal action 28 DAT against Phalaris minor,Phalaris minor; 3 g of a.i./ha,40%
same,Herbicidal action 14 DAT against Phalaris minor,Phalaris minor; 9 g of a.i./ha,80%
same,Herbicidal action 28 DAT against Phalaris minor,Phalaris minor; 9 g of a.i./ha,20%
same,Herbicidal action 14 DAT against Veronica hederifolia,Veronica hederifolia; 1 g of a.i./ha,80%
